# From patent US20080152694A1, “Devices, Systems and Methods for Ophthalmic Drug Delivery” (priority 2006, published 2008)
# Experiments:
# [1] = Dissolution of gacyclidine base pellets in a continuous flow reactor, eluted with Ringer's solution containing hydrochloric acid; assay type: physicochemical; details: for pH of the eluted drug solution: 20 μL/hr, room temperature (23±2° C.)
# Description: A drug chamber similar to the one illustrated in FIG. 5 was loaded with 11 pellets of gacyclidine base having a combined mass of 18 mg. This drug-loaded chamber was eluted at a flow rate of 20 μL/hr at room temperature (23±2° C.) using a MiniMed 508 syringe pump (available from Medtronics MiniMed of Northridge, Calif.). The syringe was loaded with 3 mL of Ringer's solution containing 0.05 to 3 mM hydrochloric acid. The eluted volume was collected in PTFE tubing attached to the pump drug capsule assembly, after a 3-D antibacterial filter. The pH of this solution was determined by use of a pH meter equipped with a Calomel electrode. Drug concentration was determined by HPLC.
# The highest pH of the eluted drug solution (5.9) was obtained at 0.05 mM hydrochloric acid, and the lowest pH of the eluted drug solution (5.6) was obtained at 3 mM hydrochloric acid. These pH values indicate quantitative conversion of the hydrochloric acid to the drug salt and are consistent with the pH expected for solutions of the hydrochloride salt.
# [2] = Water solubility of gacyclidine forms; assay type: physicochemical
# From the text: (§1) An advantage of using solid drug in an implanted device is, in at least some embodiments, the ability to store drug in the device using a smaller volume than might be required if a premixed (or other liquid) form of the drug were used. In some cases, this smaller volume enables implantation of a device containing enough drug to provide (when combined with an appropriate vehicle source) substantially continuous long term therapy. This long term therapy can be over a period of days, weeks, or months. In some cases, long term therapy may extend over several years. One example of a basic crystalline or solid amorphous drug suitable for use in methods according to some embodiments is gacyclidine. For example, it is estimated that 18 mg of solid gacyclidine eroded with an appropriate vehicle will deliver 100 μM drug over 4 years at a flow rate of 20 microliters per hour or less. […] Dissolution of the basic form of gacyclidine in water requires the presence of an acid (e.g., hydrochloric acid or lactic acid) to convert the basic form to the water-soluble acidic form. The concentration of gacyclidine in solution will therefore depend on the amount of acid available to convert the basic form to the acid form. […]
# [3] = Stability of gacyclidine forms in the presence of water; assay type: physicochemical; details: body temperature / in the presence of water
# From the text: as §1
# [4] = assay type: physicochemical; details: solid pellets exposed to a continuous stream of vehicle such as Ringer's solution
# Description: Triamcinolone acetonide is commercially available as a crystalline solid with very low water solubility. If solid pellets of triamcinolone acetonide are exposed to a continuous stream of a vehicle, such as Ringer's solution, the expected concentration of extracted triamcinolone acetonide in solution should be 40 μM or less. A higher concentration of triamcinolone acetonide can be solubilized by including an amphipathic molecule in the vehicle. Such a pharmaceutically acceptable amphipathic molecule would be polysorbate 80 (e.g., TWEEN 80®). The concentration of triamcinolone acetonide solubilized can be increased above its water solubility, 40 μM, by adding the required amount of amphipathic molecule to the vehicle that will support the desired drug concentration. The invention is not limited to methods implemented through use of triamcinolone acetonide, Ringer's solution or polysorbate 80. Any sparingly soluble drug, pharmaceutically acceptable vehicle and pharmaceutically acceptable amphipathic molecule can be used.
# [5] = cited from earlier work
Structure (SMILES),"correlation in gacyclidine concentration per hydrochloric acid concentration used for elution ([1]; 0.05 to 3 mM hydrochloric acid in Ringer's solution, drug concentration by HPLC, FIG. 27)","pH of the eluted drug solution ([1]; Ringer's solution with 0.05 mM hydrochloric acid, highest pH)","pH of the eluted drug solution ([1]; Ringer's solution with 3 mM hydrochloric acid, lowest pH)","intercept at zero concentration of hydrochloric acid (gacyclidine concentration) ([1]; linear fit of eluted gacyclidine concentration vs hydrochloric acid concentration, FIG. 27) [mM]",water solubility (in words) [2],stability (in words) [3],expected concentration of extracted triamcinolone acetonide in solution [4] [µM],water solubility [5] [µM]
CC1CCCCC1(c1cccs1)N1CCCCC1 (stereo not shown) [gacyclidine],0.976±0.049,5.9,5.6,0.0014 ± 0.0061,sparingly soluble in water,much more stable than its acidic form,–,–
"C[C@H]1CCCC[C@@]1(c1cccs1)N1CCCCC1.Cl [hydrochloride salt of gacyclidine, gacyclidine hydrochloride]",–,–,–,–,highly water soluble,unstable at body temperature,–,–
CC1(C)O[C@@H]2C[C@H]3[C@@H]4CCC5=CC(=O)C=C[C@]5(C)[C@@]4(F)[C@@H](O)C[C@]3(C)[C@]2(C(=O)CO)O1 [triamcinolone acetonide],–,–,–,–,–,–,≤ 40,40
